Columns and labels:
[1] = target: truncated PI3Kα (p110α/iSH2 p85α) (Homo sapiens (Human), UniProt P42336); assay: PI3KA_Act fluorescence polarization kinase assay (Ki); format: biochemical; settings: 1 mM ATP
In short: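 p110α/iSH2 p85α (0.5 nM) was reacted with 30 μM sonicated PIP2 in 50 mM HEPES pH 7.4, 150 mM NaCl, 5 mM MgCl2, 1 mM DTT and 0.05% CHAPS for 30 min at room temperature, then stopped with EDTA. PIP3 was detected by fluorescence polarization (GST-Grp1 PH domain/TAMRA-PIP3), and Ki came from a Morrison tight-binding fit.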

[2] = target: full-length PI3Kα (full-length p110α/p85α) (Homo sapiens (Human), UniProt P42336); assay: PI3KA_FL fluorescence polarization kinase assay (Ki); format: biochemical; settings: 41 μM ATP
Description: Enzyme Production for Biochemical Assays: 1) PI3Kα Complex (Full Length p110α and p85α)(“PI3KA_FL”)
Genes encoding for full length p110α and p85α subunits of PI3Kα complex were subcloned from existing constructs into pFASTBAC Dual vector (Life Technologies, Carlsbad, Calif.) using standard cloning procedures. Gene encoding p110α subunit was subcloned into polyhedrine promoter while gene encoding p85α subunit was subcloned into p10 promoter. Additionally, sequence encoding for histidine tag and Tobacco Etch Virus (“TEV”) cleavage site preceded p110α ORF (Open Reading Frame). Recombinant baculovirus was generated using Bac-to-Bac protocol (Life Technologies, Carlsbad, Calif.) and large scale expression was conducted in Sf21 (Life Technologies, Carlsbad, Calif.) cells at a multiplicity of infection (“MOI”)=1 for 72 hours. Cells were lyzed in 50 mM Tris pH 8.0, 250 mM NaCl, 5% glycerol, 0.25 mM TCEP, and 20 mM imidazole. The PI3Kα complex was purified from clarified supernatant using Immobilized Metalo Affinity Chromatography (“IMAC”). The protein was eluted from the column using 50 mM Tris pH 8.0, 200 mM NaCl, 5% glycerol, 0.25 mM TCEP, and 200 mM imidazole, and further desalted into 50 mM Tris pH 8.0, 20 mM NaCl, and 0.25 mM TCEP prior to loading on MonoQ sepharose (GE Healthcare, Piscataway, N.J.). PI3Kα complex was eluted from MonoQ sepharose over 20 column volumes using 0-30% gradient of buffer B (50 mM Tris pH 8.0, 1 M NaCl, and 0.25 mM TCEP). The peak fractions were pulled together and loaded on Superdex 200 26/60 SEC column equilibrated in 50 mM Tris pH 8.0, 200 mM NaCl, and 0.5 mM TCEP. […] Purity and integrity of the complex was confirmed using LCMS, analytical SEC and SDS-PAGE (sodium dodecyl sulfate polyacrylamide gel electrophoresis) analysis.
The biochemical assays of kinase activity of full-length PI3Kα (full-length p110α/p85a) or truncated PI3Kα (p110α/iSH2 p85a) were conducted using a fluorescence polarization format similar to the procedure of Yuan J., et al., (2011) “PF-04691502, a Potent and Selective Oral Inhibitor of PI3K and mTOR Kinases with Antitumor Activity”, Mol Cancer Ther. 10, 2189-2199. The enzymatic reactions were conducted in 50 μL volumes in 96-well plates. The reactions contained human recombinant PI3Kα (2 nM full-length p110α/p85α or 0.5 nM p110α/iSH2 p85) and 30 μM phosphatidylinositol 4,5-bisphosphate (“PIP2”) (Cayman Chemical Company, Ann Arbor, Mich.) and were sonicated for 1 minute prior to adding PI3Kα enzyme (PI3KA_Act or PI3KA_FL), DMSO or test compound (12-point 3-fold serial dilution, 3 μM top dose, 2° A) DMSO final concentration), 5 mM MgCl2, 50 mM HEPES pH 7.4, 150 mM NaCl, 1 mM DTT ((2S,3S)-1,4-bis(sulfanyl)butane-2,3-diol), and 0.05% 3-[(3-cholamidopropyl)dimethylammonio]-1-propanesulfonate (“CHAPS”). […] The reactions were incubated for 30 min at room temperature, stopped with EDTA pH 8 (10 mM final concentration). In a detection plate, 15 μL of detector/probe mixture, containing 480 nM GST-Grp1 PH domain protein (University of Dundee, Dundee, UK) and 12 nM carboxytetramethylrhodamine (“TAMRA”)-tagged fluorescent phosphatidylinositol (3,4,5)-triphosphate (“PIP3”) (Echelon Biosciences, Inc., Salt Lake City, Utah) in assay buffer, was mixed with 15 μL of kinase reaction mixture. The plate was shaken for 30 minutes and fluorescence polarization values were measured on an LJL Analyst HT plate reader (Molecular Devices, Sunnyvale, Calif.). […] The inhibition constants (Ki) were calculated by fitting fluorescence polarization values, corresponding to initial reaction rates, to the Morrison equation (Morrison, J. F. (1969) Kinetics of the reversible inhibition of enzyme catalysed reactions by tight-binding inhibitors. Biochim. Biophys. Acta 185, 269-286) for tight-binding competitive inhibitors using non-linear regression method (GraphPad Prism, GraphPad Software, San Diego, Calif.).

Chain of truncated PI3Kα (p110α/iSH2 p85α) (P42336 whole entry, the tested form may be a part): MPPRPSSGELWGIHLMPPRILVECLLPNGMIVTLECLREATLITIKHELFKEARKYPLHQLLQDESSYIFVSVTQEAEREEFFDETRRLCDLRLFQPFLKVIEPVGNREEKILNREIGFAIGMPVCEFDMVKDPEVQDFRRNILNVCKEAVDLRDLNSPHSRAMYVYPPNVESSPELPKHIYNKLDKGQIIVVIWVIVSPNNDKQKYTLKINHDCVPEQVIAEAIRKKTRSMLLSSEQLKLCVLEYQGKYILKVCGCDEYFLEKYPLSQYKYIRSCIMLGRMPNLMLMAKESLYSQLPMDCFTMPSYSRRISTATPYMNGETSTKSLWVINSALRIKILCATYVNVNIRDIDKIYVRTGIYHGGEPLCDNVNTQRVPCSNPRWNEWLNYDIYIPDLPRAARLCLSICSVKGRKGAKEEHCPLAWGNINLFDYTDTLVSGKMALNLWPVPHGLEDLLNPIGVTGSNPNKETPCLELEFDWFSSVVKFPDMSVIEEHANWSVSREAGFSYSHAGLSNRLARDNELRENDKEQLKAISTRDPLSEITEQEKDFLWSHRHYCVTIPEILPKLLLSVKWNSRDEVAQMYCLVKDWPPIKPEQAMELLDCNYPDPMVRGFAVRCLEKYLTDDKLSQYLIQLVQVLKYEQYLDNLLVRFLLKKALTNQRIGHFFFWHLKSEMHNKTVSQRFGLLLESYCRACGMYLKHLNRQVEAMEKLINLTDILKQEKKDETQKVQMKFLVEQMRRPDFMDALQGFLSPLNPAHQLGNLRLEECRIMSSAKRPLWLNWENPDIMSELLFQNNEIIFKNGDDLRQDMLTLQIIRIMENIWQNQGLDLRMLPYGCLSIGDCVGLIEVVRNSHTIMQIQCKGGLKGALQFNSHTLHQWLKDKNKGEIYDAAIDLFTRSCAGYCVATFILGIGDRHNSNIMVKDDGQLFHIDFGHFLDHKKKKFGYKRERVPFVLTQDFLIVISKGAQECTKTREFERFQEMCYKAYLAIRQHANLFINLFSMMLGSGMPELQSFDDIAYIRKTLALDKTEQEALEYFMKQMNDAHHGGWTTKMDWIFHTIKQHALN
Chain of full-length PI3Kα (full-length p110α/p85α) (P42336 whole entry): as the sequence (P42336 whole entry, the tested form may be a part) above
Chain of full-length PI3Kα (full-length p110α/p85α) (P27986 whole entry partner): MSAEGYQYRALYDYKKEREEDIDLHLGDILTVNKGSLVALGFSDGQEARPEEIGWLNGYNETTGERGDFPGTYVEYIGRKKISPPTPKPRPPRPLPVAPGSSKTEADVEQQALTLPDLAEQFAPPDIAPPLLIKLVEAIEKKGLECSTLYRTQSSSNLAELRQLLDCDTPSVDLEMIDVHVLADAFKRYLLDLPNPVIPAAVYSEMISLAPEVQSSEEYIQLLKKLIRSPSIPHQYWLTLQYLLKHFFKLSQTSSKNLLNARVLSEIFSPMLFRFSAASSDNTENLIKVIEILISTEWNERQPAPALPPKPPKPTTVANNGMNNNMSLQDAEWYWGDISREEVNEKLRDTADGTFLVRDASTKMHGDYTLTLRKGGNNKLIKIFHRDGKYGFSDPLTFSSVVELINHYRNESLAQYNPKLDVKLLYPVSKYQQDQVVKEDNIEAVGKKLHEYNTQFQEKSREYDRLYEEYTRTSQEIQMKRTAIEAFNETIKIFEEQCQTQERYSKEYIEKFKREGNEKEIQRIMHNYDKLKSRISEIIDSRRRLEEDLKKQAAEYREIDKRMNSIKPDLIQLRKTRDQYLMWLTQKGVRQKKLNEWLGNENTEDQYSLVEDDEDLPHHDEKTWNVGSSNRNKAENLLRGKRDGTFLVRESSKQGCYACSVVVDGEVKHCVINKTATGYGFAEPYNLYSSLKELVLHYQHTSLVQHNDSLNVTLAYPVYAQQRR

| Compound | PI3KA_Act Ki [1] [nM] | PI3KA_FL Ki (nM) [2] | PI3KA_FL Ki [2] [nM] |
| --- | --- | --- | --- |
| CC1(N2CCc3c(-c4cnc(N)nc4)nc(N4CCOCC4)nc32)CCN(S(C)(=O)=O)C1 (racemic) [Example 146] | 0.015 | ≦0.229 nM |  |
| Nc1ncc(-c2nc(N3CCOCC3)nc3c2CCN3[C@H]2CCC(F)(F)C2)cn1 (single isomer, unassigned) [Example 34] | 0.730 |  | 0.469 |
| Nc1ncc(-c2nc(N3CCOCC3)nc3c2CCN3[C@@H]2CCC(F)(F)C2)cn1 (single isomer, unassigned) [Example 35] | 0.311 |  | 0.393 |
| CC(=O)N1C[C@@H](F)[C@@H](N2CCc3c(-c4cnc(N)nc4)nc(N4CCOCC4)nc32)C1 (single isomer, unassigned) [Example 74] | 2.441 |  | 5.079 |
| CC(C)S(=O)(=O)N1CC(N2CCc3c(-c4cnc(N)nc4)nc(N4CCOC[C@@H]4C)nc32)C1 [Example 1, 5-{2-[(3S)-3-methylmorpholin-4-yl]-7-[1-(propan-2-ylsulfonyl)azetidin-3-yl]-6,7-dihydro-5H-pyrrolo[2,3-d]pyrimidin-4-yl}pyrimidin-2-amine] | 0.102 | ≦0.229 nM |  |
| Nc1ncc(-c2nc(N3CCOCC3)nc3c2CCN3C2CC(F)(F)C2)cn1 [Example 13] | 0.211 |  | 0.307 |
| CS(=O)(=O)N1CC[C@H](N2CCc3c(-c4cnc(N)nc4)nc(N4CCOCC4)nc32)C1 [Example 20] | 0.153 | ≦0.229 nM |  |
| CNS(=O)(=O)N1CC[C@H](N2CCc3c(-c4cnc(N)nc4)nc(N4CCOCC4)nc32)C1 [Example 38] | 0.124 |  | 0.228 |
| CNS(=O)(=O)N(C)[C@H]1C[C@H](N2CCc3c(-c4cnc(N)nc4)nc(N4CCOCC4)nc32)C1 [Example 46] | 0.187 |  | 0.412 |
| CNS(=O)(=O)N(C)[C@H]1C[C@@H](N2CCc3c(-c4cnc(N)nc4)nc(N4CCOCC4)nc32)C1 [Example 57] | 0.465 |  | 0.318 |
| N#C[C@H]1C[C@H](N2CCc3c(-c4cnc(N)nc4)nc(N4CCOCC4)nc32)C1 [Example 59] | 0.122 | ≦0.229 nM |  |
| COC(=O)N1CC(N2CCc3c(-c4cnc(N)nc4)nc(N4CCOCC4)nc32)C1 [Example 61] | 0.235 |  | 0.234 |
| Nc1ncc(-c2nc(N3CCOCC3)nc3c2CCN3C2CN(S(N)(=O)=O)C2)cn1 [Example 72] | 0.129 | ≦0.229 nM |  |
| CS(=O)(=O)N1CC(N2CCc3c(-c4cnc(N)nc4)nc(N4CCOCC4)nc32)C1 [Example 73] | 0.303 |  | 0.350 |
| C[C@H]1COCCN1c1nc(-c2cnc(N)nc2)c2c(n1)N([C@H]1CCN(C(=O)OC(C)(C)C)C1)CC2 [Example 76] | 0.182 |  | 0.359 |
| C[C@H]1COCCN1c1nc(-c2cnc(N)nc2)c2c(n1)N([C@H]1CCN(S(C)(=O)=O)C1)CC2 [Example 79] | 0.257 | ≦0.229 nM |  |
| CN(C)S(=O)(=O)N1CC[C@H](N2CCc3c(-c4cnc(N)nc4)nc(N4CCOCC4)nc32)C1 [Example 82] | 0.100 |  | 0.240 |
| CNS(=O)(=O)N1CC[C@@H](N2CCc3c(-c4cnc(N)nc4)nc(N4CCOC[C@@H]4C)nc32)C1 [Example 85] | 0.239 |  | 0.283 |
| CNS(=O)(=O)N1CC[C@@H](N2CCc3c(-c4cnc(N)nc4)nc(N4CCOC[C@@H]4C)nc32)C1 [Example 92] | 0.376 |  | 0.475 |

| Compound | PI3KA_Act Ki [1] [nM] | PI3KA_FL Ki (nM) [2] | PI3KA_FL Ki [2] [nM] |
| --- | --- | --- | --- |
| CS(=O)(=O)N1CCC[C@@H](N2CCc3c(-c4cnc(N)nc4)nc(N4CCOCC4)nc32)C1 [Example 93] | 0.603 |  | 0.506 |
| CNS(=O)(=O)O[C@H]1C[C@H](N2CCc3c(-c4cnc(N)nc4)nc(N4CCOCC4)nc32)C1 [Example 95] | 0.078 | ≦0.229 nM |  |
| C[C@H]1COCCN1c1nc(-c2cnc(N)nc2)c2c(n1)N([C@H]1CCN(S(N)(=O)=O)C1)CC2 [Example 100] | 0.132 | ≦0.229 nM |  |
| CCS(=O)(=O)N1CC[C@H](N2CCc3c(-c4cnc(N)nc4)nc(N4CCOCC4)nc32)C1 [Example 101] | 0.093 | ≦0.229 nM |  |
| Nc1ncc(-c2nc(N3CCOCC3)nc3c2CCN3[C@H]2CCN(S(=O)(=O)C3CC3)C2)cn1 [Example 102] | 0.067 | ≦0.229 nM |  |
| CNS(=O)(=O)O[C@H]1C[C@@H](N2CCc3c(-c4cnc(N)nc4)nc(N4CCOCC4)nc32)C1 [Example 104] | 0.079 | ≦0.229 nM |  |
| CS(=O)(=O)N[C@H]1C[C@H](N2CCc3c(-c4cnc(N)nc4)nc(N4CCOCC4)nc32)C1 [Example 105] | 0.157 |  | 0.285 |
| CC(C)S(=O)(=O)N1CC[C@H](N2CCc3c(-c4cnc(N)nc4)nc(N4CCOCC4)nc32)C1 [Example 106] | 0.064 | ≦0.229 nM |  |
| CCS(=O)(=O)N1CC(N2CCc3c(-c4cnc(N)nc4)nc(N4CCOCC4)nc32)C1 [Example 108] | 0.122 | ≦0.229 nM |  |
| Nc1ncc(-c2nc(N3CCOCC3)nc3c2CCN3C2CN(S(=O)(=O)C3CC3)C2)cn1 [Example 109] | 0.118 | ≦0.229 nM |  |
| CC(C)S(=O)(=O)N1CC[C@@H](N2CCc3c(-c4cnc(N)nc4)nc(N4CCOCC4)nc32)C1 [Example 111] | 0.151 | ≦0.229 nM |  |
| CNS(=O)(=O)[C@H]1CC[C@@H](N2CCc3c(-c4cnc(N)nc4)nc(N4CCOCC4)nc32)C1 [Example 130] |  |  | 0.352 |
| COCCOC(=O)N1CC[C@H](N2CCc3c(-c4cnc(N)nc4)nc(N4CCOC[C@@H]4C)nc32)C1 [Example 133] |  |  | 0.468 |
| CC(C)N1CCc2c(-c3cnc(N)nc3)nc(N3CCOCC3)nc21 [Example 134] |  |  | 3.883 |
| CC(C)(C)NC(=O)N1CC[C@@H](N2CCc3c(-c4cnc(N)nc4)nc(N4CCOCC4)nc32)C1 [Example 135] |  |  | 5.159 |
| Nc1ncc(-c2nc(N3CCOCC3)nc3c2CCN3[C@@H]2CC[C@H](S(N)(=O)=O)C2)cn1 [Example 137] |  |  | 0.664 |
| C[C@H]1COCCN1c1nc(-c2cnc(N)nc2)c2c(n1)N([C@@H]1CCN(C(=O)NC(C)(C)C)C1)CC2 [Example 138] |  |  | 5.547 |
| CC(C)(C)NC(=O)N1CC[C@H](N2CCc3c(-c4cnc(N)nc4)nc(N4CCOCC4)nc32)C1 [Example 139] |  |  | 0.596 |

Reference: patent US9260439B2, “Dihydropyrrolopyrimidine derivatives” (PFIZER INC., priority 2014, dated 2016)
